Results reported in PubChem BioAssay AID588645 (Sanford-Burnham Center for Chemical Genomics, 2011).
The source made the active and inactive calls. No rule for the calls is given here.

These compounds were tested against Intestinal-type alkaline phosphatase (Homo sapiens) (UniProt P09923) (assay: inhibition of human intestinal alkaline phosphatase – biochemical, set 2, mouse IAP inhibitor project, SAR follow-up (AID 588645)). Settings: human intestinal alkaline phosphatase enzymatic inhibition assay.
Intestinal-type alkaline phosphatase (Homo sapiens), sequence (P09923 whole entry, looked up): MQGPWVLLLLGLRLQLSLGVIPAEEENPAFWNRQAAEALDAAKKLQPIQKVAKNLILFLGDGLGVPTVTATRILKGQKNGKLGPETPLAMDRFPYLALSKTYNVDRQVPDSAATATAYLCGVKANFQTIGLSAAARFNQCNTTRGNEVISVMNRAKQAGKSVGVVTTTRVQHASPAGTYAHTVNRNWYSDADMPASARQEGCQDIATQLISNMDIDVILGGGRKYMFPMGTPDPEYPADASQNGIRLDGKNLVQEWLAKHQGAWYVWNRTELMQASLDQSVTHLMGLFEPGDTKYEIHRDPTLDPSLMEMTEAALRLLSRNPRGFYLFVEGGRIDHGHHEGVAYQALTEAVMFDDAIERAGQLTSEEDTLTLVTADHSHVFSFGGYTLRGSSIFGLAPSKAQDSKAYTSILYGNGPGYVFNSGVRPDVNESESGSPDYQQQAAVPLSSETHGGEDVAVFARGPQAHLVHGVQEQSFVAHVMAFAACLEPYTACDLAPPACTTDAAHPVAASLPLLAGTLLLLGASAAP

| IC50 | Structure (SMILES) |
| --- | --- |
| > 100 µM (inactive) | O=C(CCNS(=O)(=O)c1ccc2[nH]c(=O)oc2c1)NCc1cccc(Cl)c1 |
| > 100 µM (inactive) | Cc1ccc(CNC(=O)C2CCCN(S(=O)(=O)c3ccc4[nH]c(=O)oc4c3)C2)cc1 (stereo unspecified) |
| > 100 µM (inactive) | O=C(CCNS(=O)(=O)c1ccc2[nH]c(=O)oc2c1)NCc1ccccc1 |
| > 100 µM (inactive) | CCOc1ccc(CNC(=O)C2CCCN(S(=O)(=O)c3ccc4[nH]c(=O)oc4c3)C2)cc1OC (stereo unspecified) |
| > 100 µM (inactive) | COc1ccc(CNC(=O)C2CCCN(S(=O)(=O)c3ccc4[nH]c(=O)oc4c3)C2)cc1 (stereo unspecified) |
| > 100 µM (inactive) | COc1ccc(OC)c(NC(=O)C2CCCN(S(=O)(=O)c3ccc4c(c3)oc(=O)n4C)C2)c1 (stereo unspecified) |
| > 100 µM (inactive) | O=C(CCCNS(=O)(=O)c1ccc2[nH]c(=O)oc2c1)NCCc1ccc(O)cc1 |
| > 100 µM (inactive) | Cc1ccc(C)c(CNC(=O)C2CCCN(S(=O)(=O)c3ccc4[nH]c(=O)oc4c3)C2)c1 (stereo unspecified) |
| > 100 µM (inactive) | O=C(NCc1ccc(F)cc1)C1CCCN(S(=O)(=O)c2ccc3[nH]c(=O)oc3c2)C1 (stereo unspecified) |

The remaining lines, values behind:

| Structure (SMILES) | IC50 |
| --- | --- |
| COc1ccc(CNS(=O)(=O)c2ccc3[nH]c(=O)oc3c2)c(OC)c1 | > 100 µM (inactive) |
| O=C(N/N=C/c1c(F)cccc1Cl)c1ccc(O)cc1O | > 100 µM (inactive) |
| O=C(CCCNS(=O)(=O)c1ccc2[nH]c(=O)oc2c1)NCc1ccccc1Cl | > 100 µM (inactive) |
| CC(C)c1ccc(NC(=O)CCNS(=O)(=O)c2ccc3c(c2)oc(=O)n3C)cc1 | > 100 µM (inactive) |
| O=C(N/N=C/c1ccc(Br)cc1F)c1cc(O)ccc1O | > 100 µM (inactive) |
| COc1cccc(CNS(=O)(=O)c2ccc3[nH]c(=O)oc3c2)c1 | > 100 µM (inactive) |
| O=C(CCNS(=O)(=O)c1ccc2[nH]c(=O)oc2c1)NCc1ccc2c(c1)OCO2 | > 100 µM (inactive) |
| COc1ccc(/C=N\NC(=O)c2cc(O)c(O)c(O)c2)cc1CN1CCN(c2ccc(F)cc2)CC1 | > 100 µM (inactive) |
| O=C(N/N=C/c1ccc(F)c(Br)c1)c1cc(O)c(O)c(O)c1 | > 100 µM (inactive) |
| O=C(CCNS(=O)(=O)c1ccc2[nH]c(=O)oc2c1)NCc1ccccc1Cl | > 100 µM (inactive) |
| O=C(CCNS(=O)(=O)c1ccc2c(c1)CCC2)NCCc1ccc2c(c1)OCO2 | > 100 µM (inactive) |
| Cc1ccc(NC(=O)CCNS(=O)(=O)c2ccc3c(c2)oc(=O)n3C)cc1C | > 100 µM (inactive) |
| C/C(=N\NC(=O)c1cc(O)c(O)c(O)c1)c1ccc(O)cc1O | > 100 µM (inactive) |
| O=C(CCNS(=O)(=O)c1ccc2[nH]c(=O)oc2c1)NCc1ccccc1F | > 100 µM (inactive) |
| COc1ccc(NC(=O)CCNS(=O)(=O)c2ccc3[nH]c(=O)oc3c2)cc1OC | > 100 µM (inactive) |
| COc1ccc(NS(=O)(=O)c2ccc3[nH]c(=O)oc3c2)cc1OC | > 100 µM (inactive) |
| COc1cccc(/C=N/NC(=O)c2cc(O)c(O)c(O)c2)c1O | > 100 µM (inactive) |
